Results published in patent publication US11154564B2, “Composition for cough” (Aboca S.p.A. Società Agricola, priority 2017, dated 2021).

What was measured:
human keratocytes = test: Scavenger-type anti-oxidizing activity assay (DCA probe, H2O2 oxidative stress); assay type: cell-based; conditions: 0.05 mg/ml
Description: Assessment of anti-oxidizing activity of the sample on human cells exposed to chemical-type progressive oxidative stress. The assessment of anti-oxidizing action is obtained from quantification of free radical formation in cells exposed to the sample and to oxidative stress. The method applied is based on the use of the fluorimetric probe 2,7 dichlorofluorescein acetate-DCA-: this probe penetrates into cells, binds to cell membrane proteins and macromolecules. In this form, the probe is not fluorescent, only becoming fluorescent when oxidized by free radicals. Cells pretreated with DCA are exposed to the various dilutions of the sample and hydrogen peroxide. […] Starting from this mother solution, the first dilution was prepared at a concentration of 0.5 mg/ml in saline; therefrom, by applying a 1:2 dilution factor, the other four dilutions were obtained. Positive Control: cells exposed to the 500 μM H2O2 solution. Internal Control: cells exposed to an ascorbic acid solution (0.05 mg/ml). Negative Control: cells exposed to the inoculation medium. The assay was performed on a simple cell model consisting of a monolayer of stabilized human keratocytes (cells were purchased from IZSLER and are guaranteed as free from any viral/bacterial contamination and/or from mycoplasma). […] The same procedure was carried out to obtain the same five dilutions in a 500 μM H2O2 solution in saline. 150 μl per each dilution (in saline and in H2O2) were distributed into four wells on two different plates. Cultured cells were enzymatically detached from the growth medium and counted with an electronic cell counter (Scepter); a cell suspension was prepared (in inoculation medium) at the density of 300,000 cells/ml, which were then distributed into 96-well plates: 100 μl per well, obtaining a seeding density of 30,000 cells per well. Lastly, the plates were placed back to culture in an incubator at 37° C. and 5% CO2-enriched humid atmosphere for the subsequent 24 hours. The inoculation medium was removed, cells were washed once with PBS, then PBS was discarded and 150 μl DCA (4 μM) was distributed in both plates. Then, the plates were placed back in incubator at 37° C. and 5% CO2-enriched atmosphere for 15 minutes. At the end of the DCA incubation period, the solution was removed, and cells were washed once with PBS, then 150 μl of the above-described dilutions of the sample and of the controls were distributed in the plates. Then, free radical formation was measured from T0 (right after inoculation into the two plates) every 20 minutes, up to 100 minutes (5 measurements) with a fluorimeter. At the end of the measurements, after the 100 minutes, the inoculate of both plates was removed and Neutral Red Uptake vitality assay was performed. F.U.: fluorescence unit F.U. positive control: average of F.U. emitted from cells exposed to the H2O2 solution (maximum production of free radicals) F.U. negative control: average of F.U. emitted from cells not exposed to oxidative stress At each time interval of exposure ([NT]5) there were carried out: the average of F.U. emitted from cells exposed to the sample, to vitamin C without oxidative stress, is subtracted from the average of F.U. emitted from cells exposed to the sample, to vitamin C and oxidative stress. In other words, the average values of fluorescence emitted from the non-stressed plate were subtracted from the average values of fluorescence emitted from the stressed plate. […]: cells exposed to the sole sample F.U. Controlpos: cells exposed to the sole oxidative stress F.U. Controlneg: cells exposed to saline without oxidative stress

[1] = Stability of the composition (total tannins as pyrogallol, EP 9.2, 2.8.14); assay type: physicochemical; conditions: fluid form (syrup), 40° C. and 75% of relative humidity, six months
Procedure: The stability of the composition of the invention in fluid form (syrup, as per examples above, at 2) with regard to tannins was assessed by measuring the content of total tannins, expressed as pyrogallol, by means of spectrophotometric method described in European Pharmacopoeia (EP 9.2, 2.8.14) for agrimony.

**Q.** With `O=C1O[C@H]([C@@H](O)CO)C(O)=C1O` [Vit. C, Ascorbic acid] as the compound, how does the “% PROTECTION FROM FREE RADICALS” value (human keratocytes; 20 MIN, 500 μM H2O2) read?
**A.** 57%

**Q.** And the “FREE RADICAL DEVELOPMENT” value (human keratocytes; 20 MIN, 500 μM H2O2)?
**A.** 5993

**Q.** What about the “% PROTECTION FROM FREE RADICALS” value (human keratocytes; 40 MIN, 500 μM H2O2) of the same compound?
**A.** 60%

**Q.** And the “FREE RADICAL DEVELOPMENT” value (human keratocytes; 40 MIN, 500 μM H2O2)?
**A.** 5721

**Q.** And the “% PROTECTION FROM FREE RADICALS” value (human keratocytes; 60 MIN, 500 μM H2O2)?
**A.** 60%

**Q.** What about the “FREE RADICAL DEVELOPMENT” value (human keratocytes; 60 MIN, 500 μM H2O2) of the same compound?
**A.** 5240

**Q.** What about the “% PROTECTION FROM FREE RADICALS” value (human keratocytes; 80 MIN, 500 μM H2O2) of the same compound?
**A.** 63%

**Q.** And the “FREE RADICAL DEVELOPMENT” value (human keratocytes; 80 MIN, 500 μM H2O2)?
**A.** 4802

**Q.** What about the “% PROTECTION FROM FREE RADICALS” value (human keratocytes; 100 MIN, 500 μM H2O2) of the same compound?
**A.** 61%

**Q.** And the “FREE RADICAL DEVELOPMENT” value (human keratocytes; 100 MIN, 500 μM H2O2)?
**A.** 4937

**Q.** What about the “% PROTECTION FROM FREE RADICALS” value (human keratocytes; T0, 500 μM H2O2) of the same compound?
**A.** 45%

**Q.** And the “FREE RADICAL DEVELOPMENT” value (human keratocytes; T0, 500 μM H2O2)?
**A.** 5654

**Q.** What about the “stability in fluid form” value ([1]; listed as Vitamin C) of the same compound?
**A.** did not exhibit stability beyond T0

**Q.** And the “stability in fluid form” value ([1]; listed as vitamin C)?
**A.** markedly unstable
